The values below come from patent publication US12497411B2, “Muscarinic acetylcholine receptor subtype 4 antagonists in the treatment of anemia” (COLD SPRING HARBOR LABORATORY, priority 2019, dated 2025).

Usually Ki stands for a measure of affinity in units of concentration, obtained from inhibition or displacement.

One assay deals with Mouse BFU-Es. The experiment in a line: Primary mouse BFU-E culture assay (cell expansion). Type of assay: cell-based. As to conditions: for potency in stimulating BFU-E expansion: mouse primary cell BFU-E culture assay. The method, then: Primary mouse BFU-Es were isolated from mouse embryonic day 14.5 (E14.5) fetal liver and cultured in StemSpan serum-free expansion medium, and the numbers of cells formed were counted during culture. BFU-Es were infected with either viruses encoding control shRNA or viruses encoding shRNAs targeting Chrm4, and numbers of GFP+ cells formed during culture were counted. DMSO or 25 mg/kg oxyphenonium bromide was intraperitoneally injected into the hemolysis mouse model, Mx1-cre Srsf2 P95H/WT MDS mouse model, and aging mouse model. Complete blood count (CBC) was performed after compound injection. CREB ChIP-Seq was performed on BFU-Es after culture with 100 μM oxyphenonium bromide for 45 minutes. RNA-Seq was performed in BFU-Es after being cultured with DMSO or oxyphenonium bromide for 3 days.
BFU-Es were isolated from mouse embryonic day 14.5 fetal liver using fluorescence-activated cell sorting (FACS) method previously described (Flygare et al., Blood 117, 3435-3444 (2011)). BFU-Es were cultured in StemSpan SFEM II medium containing rmSCF (100 ng/ml), EPO (2 U/ml), rmIGF-1 (40 ng/ml), dexamethasone (1 nmol/ml or 10 nmol/ml), oxyphenonium bromide ([…]), and orphenadrine citrate (1 μmol/ml).
BFU-Es were isolated from mouse embryonic day 14.5 fetal liver using fluorescence-activated cell sorting (FACS) method. BFU-Es were cultured in StemSpan SFEM II medium containing rmSCF (100 ng/ml), EPO (2 U/ml), rmIGF-1 (40 ng/ml), dexamethasone (1 nM), together with either DMSO, PCS1055 (5 nM), or PD102807 (3 nM). Numbers of cell formed were counted during in vitro culture.
FIGS. 7 and 8 show the results of the primary BFU-E culture assay. […] Highly purified BFU-Es were isolated as lin-Ter-119-CD16/CD32-Sca-1-CD41-c-Kit+CD71/Cd24a^10% low population using the fluorescence-activated cell sorting (FACS) method. BFU-Es were cultured in medium containing rmSCF, EPO, and rmIGF-1, in the presence of PD102807 or Compounds A-K at indicated concentrations.

Assay [1] has as its target T1, human recombinant CHRM3 receptor (Homo sapiens, UniProt P20309).
T1 construct: expressed in transfected cells; host or cells: CHO cells (membranes)
Briefly: Radioligand binding assay, CHRM3. As to conditions: [3H]4-DAMP (0.2 nM), CHO cell membranes, 60 minutes at room temperature; read-out: Ki M3. The method, then:
(§1) PD102807 and Compounds A-K at concentrations of 1×10^−9 M, 1×10^−8 M, 1×10^−7 M, 1×10^−6 M, and 1×10^−5 M were tested in standard binding assays with radioligands and cell membranes with receptors. Compound binding was calculated as a percent inhibition of the binding of a radioactively labeled ligand specific for each target, and the Ki values were determined. For CHRM1, the binding assay was performed using [^3H]pirenzepine (2 nM) as a radioligand and membranes of CHO cells with human recombinant CHRM1 receptor. The incubation time was 60 minutes at room temperature. For CHRM2, the binding assay was performed using [^3H]AF-DX 384 (2 nM) as a radioligand and membranes of CHO cells with human recombinant CHRM2 receptor. The incubation time was also 60 minutes at room temperature. For CHRM3, the binding assay was performed using [^3H]4-DAMP (0.2 nM) as a radioligand and membranes of CHO cells with human recombinant CHRM3 receptor. The incubation time was also 60 minutes at room temperature. For CHRM4, the binding assay was performed using [^3H]4-DAMP (0.2 nM) as a radioligand and membranes of CHO cells with human recombinant CHRM4 receptor. The incubation time was also 60 minutes at room temperature. For CHRM5, the binding assay was performed using [^3H]4-DAMP (0.3 nM) as a radioligand and membranes of CHO cells with human recombinant CHRM5 receptor. The incubation time was also 60 minutes at room temperature.

Assay [2] deals with T2, human recombinant CHRM1 receptor (Homo sapiens, UniProt P11229).
T2 construct: expressed in transfected cells; host or cells: CHO cells (membranes)
T2 sequence (P11229 1-460): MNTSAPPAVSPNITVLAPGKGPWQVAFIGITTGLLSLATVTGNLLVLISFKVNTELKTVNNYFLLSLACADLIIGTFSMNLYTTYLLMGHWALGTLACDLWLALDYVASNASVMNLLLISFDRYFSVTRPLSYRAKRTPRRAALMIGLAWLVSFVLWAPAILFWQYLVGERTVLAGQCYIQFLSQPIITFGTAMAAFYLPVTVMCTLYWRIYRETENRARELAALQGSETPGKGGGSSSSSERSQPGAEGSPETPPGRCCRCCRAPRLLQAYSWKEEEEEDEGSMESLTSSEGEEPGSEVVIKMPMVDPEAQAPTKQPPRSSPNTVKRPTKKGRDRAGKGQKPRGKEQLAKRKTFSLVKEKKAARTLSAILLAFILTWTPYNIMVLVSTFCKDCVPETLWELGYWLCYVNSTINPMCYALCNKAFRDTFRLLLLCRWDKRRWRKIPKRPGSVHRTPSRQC
The experiment in a line: Radioligand binding assay, CHRM1. As to conditions: [3H]pirenzepine (2 nM), CHO cell membranes, 60 minutes at room temperature; read-out: Ki M1. The method, then: as §1

In assay [3] the target is T3, human recombinant CHRM2 receptor (Homo sapiens, UniProt P08172).
T3 construct: expressed in transfected cells; host or cells: CHO cells (membranes)
T3 sequence (P08172 1-466): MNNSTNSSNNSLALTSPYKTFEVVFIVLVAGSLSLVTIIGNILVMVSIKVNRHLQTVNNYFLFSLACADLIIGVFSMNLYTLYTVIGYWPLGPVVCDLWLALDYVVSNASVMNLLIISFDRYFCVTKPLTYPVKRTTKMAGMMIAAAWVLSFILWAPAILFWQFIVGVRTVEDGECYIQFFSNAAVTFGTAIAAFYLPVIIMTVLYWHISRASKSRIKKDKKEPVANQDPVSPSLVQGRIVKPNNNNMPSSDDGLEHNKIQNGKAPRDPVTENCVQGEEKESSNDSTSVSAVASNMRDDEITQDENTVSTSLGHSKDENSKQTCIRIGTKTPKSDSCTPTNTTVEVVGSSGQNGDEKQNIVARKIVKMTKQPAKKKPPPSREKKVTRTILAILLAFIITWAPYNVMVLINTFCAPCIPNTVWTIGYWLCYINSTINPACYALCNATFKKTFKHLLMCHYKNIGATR
The experiment in a line: Radioligand binding assay, CHRM2. As to conditions: [3H]AF-DX 384 (2 nM), CHO cell membranes, 60 minutes at room temperature; read-out: Ki M2. On the procedure:
as §1

The next assay has as its target T4, CHRM4 (Homo sapiens, UniProt P08173).
T4 sequence (P08173 1-479): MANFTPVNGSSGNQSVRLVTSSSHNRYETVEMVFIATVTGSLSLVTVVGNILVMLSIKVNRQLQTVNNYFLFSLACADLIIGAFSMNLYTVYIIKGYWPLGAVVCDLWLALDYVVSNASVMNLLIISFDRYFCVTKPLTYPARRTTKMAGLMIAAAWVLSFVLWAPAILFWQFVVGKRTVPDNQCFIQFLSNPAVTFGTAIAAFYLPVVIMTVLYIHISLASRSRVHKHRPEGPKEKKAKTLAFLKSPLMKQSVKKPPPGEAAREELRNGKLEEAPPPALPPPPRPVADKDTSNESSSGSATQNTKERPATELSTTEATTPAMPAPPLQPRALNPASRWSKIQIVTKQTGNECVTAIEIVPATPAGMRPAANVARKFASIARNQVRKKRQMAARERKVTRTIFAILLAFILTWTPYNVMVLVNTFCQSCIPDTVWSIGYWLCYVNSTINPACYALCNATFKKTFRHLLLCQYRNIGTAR
Briefly: Radioligand binding assay, CHRM4. Also noted: expressed in transfected cells; host or cells: CHO cells (membranes). As to conditions: [3H]4-DAMP (0.2 nM), CHO cell membranes, 60 minutes at room temperature; read-out: Ki M4. The method, then:
as §1

The subject of assay [4] is PHZ induced hemolytic anemia in C57bl/6 mice. The experiment in a line: PHZ induced hemolytic anemia mouse model, CBC. As to conditions: subcutaneous injection; B 1.5, 3 or 5 mg/kg; I 0.5, 0.7 or 1 mg/kg; 60 mg/kg phenylhydrazine. Type of assay: in vivo. On the procedure:
Animal experiments were conducted in the Cold Spring Harbor Laboratory Animal Shared Resource in accordance with Institutional Animal Care and Use Committee-approved procedures. 4-6 weeks old C57bl/6 mice, purchased from Jackson Laboratory and randomly distributed into compound and control treatment groups, were given through oral delivery of PCS1055 (50 mg/kg or 100 mg/kg) twice per day or PD102807 (50 mg/kg or 100 mg/kg) once per day everyday for 3 days. On day 3, mice were intraperitoneally injected with 60 mg/kg PHZ. Mice were then given through oral delivery of PD102807 (50 mg/kg or 100 mg/kg) once per day every day for 2 days. Peripheral blood samples were collected retro-orbitally on day 6 using heparinized capillary tubes in blood collection tubes with K2-EDTA. CBC was performed using Hemavet 950. […] C57bl/6 mice were injected with 60 mg/kg phenylhydrazine to induce hemolysis. Mice were delivered with either vehicle control or Compound A or B (30 mg/kg or 100 mg/kg). Peripheral blood samples were collected retro-orbitally using heparinized capillary tubes into blood collection tubes with K2-EDTA. Complete blood counting was performed using Hemavet 950. Hematocrit (HCT), red blood cell (RBC) and hemoglobin (Hb) values are shown. […] C57bl/6 mice were injected with 60 mg/kg phenylhydrazine to induce hemolysis. Mice were delivered with subcutaneous injection with either vehicle control or Compound B (1.5 mg/kg, 3 mg/kg, or 5 mg/kg) or I (0.5 mg/kg, 0.7 mg/kg, or 1 mg/kg). Peripheral blood samples were collected retro-orbitally using heparinized capillary tubes into blood collection tubes with K2-EDTA. Complete blood counting was performed using Hemavet 950. Hematocrit (HCT), red blood cell (RBC) and hemoglobin (Hb) values are shown.

Counter-ions that a name gives are not always drawn.

T1 sequence (P20309 whole entry): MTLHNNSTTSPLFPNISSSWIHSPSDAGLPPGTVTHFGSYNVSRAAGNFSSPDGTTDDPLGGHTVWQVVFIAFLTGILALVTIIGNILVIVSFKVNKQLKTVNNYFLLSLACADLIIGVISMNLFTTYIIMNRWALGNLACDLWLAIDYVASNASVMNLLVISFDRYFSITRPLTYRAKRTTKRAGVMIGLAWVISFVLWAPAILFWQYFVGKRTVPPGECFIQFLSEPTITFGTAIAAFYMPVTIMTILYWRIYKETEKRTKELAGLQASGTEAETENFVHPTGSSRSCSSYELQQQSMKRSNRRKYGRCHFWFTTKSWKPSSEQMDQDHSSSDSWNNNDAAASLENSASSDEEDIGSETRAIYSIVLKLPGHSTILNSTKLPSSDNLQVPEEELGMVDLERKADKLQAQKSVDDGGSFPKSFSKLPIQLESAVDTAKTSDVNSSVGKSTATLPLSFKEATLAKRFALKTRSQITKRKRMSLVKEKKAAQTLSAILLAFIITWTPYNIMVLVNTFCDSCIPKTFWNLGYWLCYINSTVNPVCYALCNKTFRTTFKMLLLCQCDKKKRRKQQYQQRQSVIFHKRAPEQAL

For `Cc1ccccc1C(OCCN(C)C)c1ccccc1` (stereo not drawn) [orphenadrine citrate], the “BFU-E expansion (test of GPCR agonists and antagonists)” value in the assay on Mouse BFU-Es (mouse BFU-E culture) was “triggered BFU-E expansion”.
As to `CCOC(=O)c1c(C)n(C)c2ccc(O)c(CN3CCc4cc(OC)ccc4C3)c12` [Compound D, Ethyl 5-hydroxy-4-((6-methoxy-3,4-dihydroisoquinolin-2(1H)-yl)methyl)-1,2-dimethyl-1H-indole-3-carboxylate], the Ki was 740 nM in assay [1], 280 nM in assay [2], 59 nM in assay [3] and 42 nM at CHRM4.
Consider `CCOC(=O)c1c(C)n(C)c2ccc3c(c12)CN1CCc2cc(OC)ccc2C1O3` (stereo not drawn) [Compound C, Ethyl 9-methoxy-2,3-dimethyl-3,6a,11,14-tetrahydro-12H-indolo[4′,5′:5,6][1,3]oxazino[2,3-a]isoquinoline-1-carboxylate], for which the inhibitory constant (Ki) in assay [1] turned out to be 600 nM; in assay [2], 5200 nM; in assay [3] it was 850 nM; on CHRM4, 4.6 nM.
For the molecule `CCCCCCOC(=O)[C@]1(O)C[C@@H]2O[C@@]1(C)n1c3ccccc3c3c4c(c5c6ccccc6n2c5c31)C(=O)NC4` [KT5720], the fold cell expansion entry in the assay on Mouse BFU-Es (5 μM KT5720 (with 3 nM PD102807), day 9, vs untreated) was “significantly reduced fold cell expansion”.
With `CCOC(=O)c1c(C)n(C)c2cc(CN3CCc4cc(OC)ccc4C3)c(OC)cc12` [J], the Ki in assay [1] is 1700 nM; in assay [2] it was 1300 nM; in assay [3] it was 750 nM; at CHRM4, 8.9 nM.
With `CCOC(=O)c1c(C)n(C)c2ccc(OC)c(CN3CCc4cc(OC)ccc4C3)c12` [F], the Ki came to 3900 nM in assay [1], 3900 nM in assay [3] and 950 nM at CHRM4. The “potency in stimulating BFU-E expansion” value in the assay with Mouse BFU-Es was “slightly less potent than the others”.
Take `CCOC(=O)c1c(C)[nH]c2ccc(OC)c(CN3CCc4cc(OC)ccc4C3)c12` [Compound E, ethyl 5-methoxy-4-((6-methoxy-3,4-dihydroisoquinolin-2(1H)-yl)methyl)-2-methyl-1H-indole-3-carboxylate]: the values for the Ki (in assay [2]; in assay [3]; on CHRM4) were 8500 nM, 2600 nM and 1500 nM, respectively.
With `CCOC(=O)c1c(C)[nH]c2ccc3c(c12)C[N+]1(C)CCc2cc(OC)ccc2C1O3` (single isomer, unassigned) [Compound B, 1-(ethoxycarbonyl)-9-methoxy-2,13-dimethyl-3,6a,11,12,13,14-hexahydroindolo[4′,5′:5,6][1,3]oxazino[2,3-a]isoquinolin-13-ium Iodide], the “potency in stimulating BFU-E expansion” value with Mouse BFU-Es was “slightly less potent than the others”. For the same molecule, the “treatment of anemia in vivo (HCT, RBC, Hb)” value in assay [4] is listed as “treat anemia in vivo”. In addition, the inhibitory constant (Ki) on CHRM4 was 4300 nM.
